Assay results published in patent US11168078B2, “Sulfoximine, sulfonimidamide, sulfondiimine and diimidosulfonamide compounds as inhibitors of indoleamine 2,3-dioxygenase” (Shanghai Fochon Pharmaceutical Co., Ltd., priority 2016, dated 2021).

These compounds were tested against T1, IDO (Homo sapiens, UniProt P14902) (assay: IDO Cell-Based NEK Green Assay (NFK Green, N-formyl kynurenine level)). Settings: Hela cells, 1 mM L-Tryptophan, 100 ng/mL recombinant human interferon-gamma, 2 days, NFK Green fluorescence.
T1 construct: endogenous in cells; host or cells: HeLa cells stimulated with recombinant human interferon-gamma
T1 sequence (P14902 whole entry): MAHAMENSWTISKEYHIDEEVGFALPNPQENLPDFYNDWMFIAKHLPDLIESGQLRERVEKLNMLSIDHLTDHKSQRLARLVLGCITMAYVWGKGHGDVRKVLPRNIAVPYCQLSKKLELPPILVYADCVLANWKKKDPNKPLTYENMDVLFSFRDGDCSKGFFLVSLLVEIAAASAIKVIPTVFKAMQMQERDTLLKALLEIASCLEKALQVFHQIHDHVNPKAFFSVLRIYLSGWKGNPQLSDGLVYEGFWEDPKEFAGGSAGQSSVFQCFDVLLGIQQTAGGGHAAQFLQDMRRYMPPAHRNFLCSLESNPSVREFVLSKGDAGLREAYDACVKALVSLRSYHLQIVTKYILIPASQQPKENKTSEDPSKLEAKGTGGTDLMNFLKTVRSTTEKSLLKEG
Procedure: IDO Cell-Based NEK Green Assay
Materials: RPMI 1640 (phenol red free) (Invitrogen Cat. No. 11835030), Fetal Bovine Serum (Invitrogen Cat. No. 10099141), Penicillin-Streptomycin (Invitrogen Gibco Cat. No. 15140-122), Cellular assay kit (NTRC, Cat. No. NTRC-GSCell-1K), DMSO (Sigma, Cat. No. D2650), 384 wells_compound plate (Greiner, Cat. No. 781280), 384 wells_assay plate (Greiner, Cat. No. 781091)
The concentrations of test compounds varied from 5 μM to 0.76 nM with 3-fold dilution, 10 points, in duplicates.
Hela cells were seeded at 8,000 cells per well with RPMI/phenol red free media containing 10% FBS in a 384-well tissue culture plate. Mixture of compounds and 1 mM L-Tryptophan were added to cells; and then the recombinant human interferon-gamma was added at the final concentration of 100 ng/mL to activate IDO signaling. The cells were incubated for 2 days in 37° C. incubator with 5% CO2. After that, NFK Green was used to detect the N-formyl kynurenine level by following the commercial kit instruction. The fluorescent signal was measured by Envision plate Reader (excitation, 400/25; emission, 510/20). Curves are fit by XLFIT5 as % inhibition vs. log [compound concentration] using a 4 parameters logistic model 205.
Select compounds prepared as described above were assayed according to the biological procedures described herein.
With `CN=S(=O)(CCCNc1nonc1/C(=N/O)Nc1ccc(F)c(Br)c1)NC` (stereo not drawn) [Example 17, (Z)—N-(3-bromo-4-fluorophenyl)-4-((3-(N,N′-dimethylsulfamidimidoyl)propyl)amino)-N′-hydroxy-1,2,5-oxadiazole-3-carboximidamide] the IC50 was 0.0106 µM.
With `CN=S(=O)(CCCNc1nonc1/C(=N/O)Nc1ccc(F)c(Cl)c1)NC` (stereo not drawn) [Example 18, (Z)—N-(3-chloro-4-fluorophenyl)-4-((3-(N,N′-dimethylsulfamidimidoyl)propyl)amino)-N′-hydroxy-1,2,5-oxadiazole-3-carboximidamide] the IC50 was 0.0232 µM.
With `CS(=N)(=N)CCNc1nonc1/C(=N/O)Nc1ccc(F)c(Br)c1` [Example 20, (Z)—N-(3-bromo-4-fluorophenyl)-4-({2-[diimino(methyl)-λ^6-sulfanyl]ethyl}amino)-N′-hydroxy-1,2,5-oxadiazole-3-carboximidamide] the IC50 was 0.0122 µM.
`C#Cc1cc(N/C(=N\O)c2nonc2NCCNS(=N)(=O)CC)ccc1F` (stereo not drawn) [Example 21, (Z)-4-((2-(ethylsulfonoamidimidamido)ethyl)amino)-N-(3-ethynyl-4-fluorophenyl)-N′-hydroxy-1,2,5-oxadiazole-3-carboximidamide] was tested, and the IC50 was 0.0163 µM.
`CN=S(C)(=O)NCCNc1nonc1/C(=N/O)Nc1ccc(F)c(Cl)c1` (stereo not drawn) [Example 22, (Z)-N-(3-chloro-4-fluorophenyl)-N′-hydroxy-4-((2-(N′-methylmethylsulfonoamidimidamido)ethyl)amino)-1,2,5-oxadiazole-3-carboximidamide] showed an IC50 of 0.0275 µM.
`CCS(=O)(=NC)NCCNc1nonc1/C(=N/O)Nc1ccc(F)c(Cl)c1` (stereo not drawn) [Example 23, (Z)-N-(3-chloro-4-fluorophenyl)-N′-hydroxy-4-((2-(N′-methylethylsulfonoamidimidamido)ethyl)amino)-1,2,5-oxadiazole-3-carboximidamide] showed an IC50 of 0.0332 µM.
`CCS(=N)(=O)NCCCNc1nonc1/C(=N/O)Nc1ccc(F)c(Br)c1` (stereo not drawn) [Example 24, (Z)-N-(3-bromo-4-fluorophenyl)-4-[(3-ethanesulfonoimidamidopropyl)amino]-N′-hydroxy-1,2,5-oxadiazole-3-carboximidamide] was tested, and the IC50 was 0.0082 µM.
`CCS(=N)(=O)NCCNc1nonc1/C(=N/O)Nc1ccc(F)c(Cl)c1` (stereo not drawn) [Example 25, (Z)-N-(3-chloro-4-fluorophenyl)-4-((2-(ethylsulfonoamidimidamido)ethyl)amino)-N′-hydroxy-1,2,5-oxadiazole-3-carboximidamide] gave an IC50 of 0.0175 µM.
Work on `CS(=N)(=O)NCCCNc1nonc1/C(=N/O)Nc1ccc(F)c(Cl)c1` (stereo not drawn) [Example 26, (Z)-N-(3-chloro-4-fluorophenyl)-N′-hydroxy-4-[(3-methanesulfonoimidamidopropyl)amino]-1,2,5-oxadiazole-3-carboximidamide] yielded an IC50 of 0.014 µM.
`CCS(=N)(=O)NCCCNc1nonc1/C(=N/O)Nc1ccc(F)c(Cl)c1` (stereo not drawn) [Example 27, (Z)-N-(3-chloro-4-fluorophenyl)-4-[(3-ethanesulfonoimidamidopropyl)amino]-N′-hydroxy-1,2,5-oxadiazole-3-carboximidamide] gave an IC50 of 0.0165 µM.
Compound `C#Cc1cc(N/C(=N\O)c2nonc2NCCN=S(C)(C)=O)ccc1F` [Example 29, (Z)-4-((2-((dimethyl(oxo)-λ^6-sulfanylidene)amino)ethyl)amino)-N-(3-ethynyl-4-fluoro-phenyl)-N′-hydroxy-1,2,5-oxadiazole-3-carboximidamide] has an IC50 of 0.0265 µM.
In the case of `CS(C)(=O)=NCCCNc1nonc1/C(=N/O)Nc1ccc(F)c(Br)c1` [Example 30, (Z)-N-(3-bromo-4-fluorophenyl)-4-((3-((dimethyl(oxo)-λ^6-sulfanylidene)amino)propyl)amino)-N′-hydroxy-1,2,5-oxadiazole-3-carboximidamide], the IC50 is reported as 0.0636 µM.
In the case of `CS(C)(=O)=NCCCNc1nonc1/C(=N/O)Nc1ccc(F)c(Cl)c1` [Example 31, (Z)-N-(3-chloro-4-fluorophenyl)-4-((3-((dimethyl(oxo)-λ^6-sulfanylidene)amino)propyl)amino)-N′-hydroxy-1,2,5-oxadiazole-3-carboximidamide], the IC50 is reported as 0.112 µM.
For `O=S1(=NCCCNc2nonc2/C(=N/O)Nc2ccc(F)c(Cl)c2)CCC1` [Example 32, (Z)-N-(3-chloro-4-fluorophenyl)-N′-hydroxy-4-((3-((1-oxido-1λ^6-thietan-1-ylidene)amino)propyl)amino)-1,2,5-oxadiazole-3-carboximidamide], the IC50 was 0.0644 µM.
For `CCS(=O)(=NC)NCCNc1nonc1/C(=N/O)Nc1ccc(F)c(Br)c1` (stereo not drawn) [Example 33, (Z)-N-(3-bromo-4-fluorophenyl)-N′-hydroxy-4-((2-(N′-methylethylsulfonoamidimidamido)ethyl)amino)-1,2,5-oxadiazole-3-carboximidamide], the IC50 was 0.0239 µM.
With `CCS(=N)(=N)CCNc1nonc1/C(=N/O)Nc1ccc(F)c(Br)c1` [Example 34, (Z)-N-(3-bromo-4-fluorophenyl)-4-{[2-(ethyldiimino-λ^6-sulfanyl)ethyl]amino}-N′-hydroxy-1,2,5-oxadiazole-3-carboximidamide] the IC50 was 0.0097 µM.
Work on `CS(=N)(=N)CCNc1nonc1/C(=N/O)Nc1ccc(F)c(Cl)c1` [Example 35, (Z)-N-(3-chloro-4-fluorophenyl)-4-({2-[diimino(methyl)-λ^6-sulfanyl]ethyl}amino)-N′-hydroxy-1,2,5-oxadiazole-3-carboximidamide] yielded an IC50 of 0.0337 µM.
Work on `CS(=N)(=N)CCCNc1nonc1/C(=N/O)Nc1ccc(F)c(Br)c1` [Example 36, (Z)-N-(3-bromo-4-fluorophenyl)-4-({3-[diimino(methyl)-λ^6-sulfanyl]propyl}amino)-N′-hydroxy-1,2,5-oxadiazole-3-carboximidamide] yielded an IC50 of 0.0467 µM.
Compound `CCS(=N)(=N)CCCNc1nonc1/C(=N/O)Nc1ccc(F)c(Br)c1` [Example 37, (Z)-N-(3-bromo-4-fluorophenyl)-4-{[3-(ethyldiimino-λ^6-sulfanyl)propyl]amino}-N′-hydroxy-1,2,5-oxadiazole-3-carboximidamide] has an IC50 of 0.0205 µM.
`CC(C)S(=N)(=N)CCNc1nonc1/C(=N/O)Nc1ccc(F)c(Br)c1` [Example 38, (Z)-N-(3-bromo-4-fluorophenyl)-4-({2-[diimino(propan-2-yl)-λ^6-sulfanyl]ethyl}amino)-N′-hydroxy-1,2,5-oxadiazole-3-carboximidamide] gave an IC50 of 0.0133 µM.
With `N=S(=N)(CCNc1nonc1/C(=N/O)Nc1ccc(F)c(Br)c1)C1CC1` [Example 39, (Z)-N-(3-bromo-4-fluorophenyl)-4-{[2-(cyclopropyldiimino-λ^6-sulfanyl)ethyl]amino}-N′-hydroxy-1,2,5-oxadiazole-3-carboximidamide] the IC50 was 0.0523 µM.
For `N=S(=N)(CCO)CCNc1nonc1/C(=N/O)Nc1ccc(F)c(Br)c1` [Example 40, (Z)-N-(3-bromo-4-fluorophenyl)-N′-hydroxy-4-({2-[(2-hydroxyethyl)diimino-λ^6-sulfanyl]ethyl}amino)-1,2,5-oxadiazole-3-carboximidamide], the IC50 was 0.0391 µM.
Work on `COCCS(=N)(=N)CCNc1nonc1/C(=N/O)Nc1ccc(F)c(Br)c1` [Example 41, (Z)-N-(3-bromo-4-fluorophenyl)-4-({2-[diimino(2-methoxyethyl)-λ^6-sulfanyl]ethyl}amino)-N′-hydroxy-1,2,5-oxadiazole-3-carboximidamide] yielded an IC50 of 0.0209 µM.
With `CCS(=N)(=N)CCNc1nonc1/C(=N/O)Nc1ccc(F)c(C#N)c1` [Example 42, (Z)-N-(3-cyano-4-fluorophenyl)-4-{[2-(ethyldiimino-λ^6-sulfanyl)ethyl]amino}-N′-hydroxy-1,2,5-oxadiazole-3-carboximidamide] the IC50 was 0.196 µM.
`C#Cc1cc(N/C(=N\O)c2nonc2NCCS(C)(=N)=N)ccc1F` [Example 43, (Z)-4-({2-[diimino(methyl)-λ^6-sulfanyl]ethyl}amino)-N-(3-ethynyl-4-fluorophenyl)-N′-hydroxy-1,2,5-oxadiazole-3-carboximidamide] gave an IC50 of 0.238 µM.
With `C#Cc1cc(N/C(=N\O)c2nonc2NCCS(=N)(=N)CC)ccc1F` [Example 44, (Z)-4-{[2-(ethyldiimino-λ^6-sulfanyl)ethyl]amino}-N-(3-ethynyl-4-fluorophenyl)-N′-hydroxy-1,2,5-oxadiazole-3-carboximidamide] the IC50 was 0.0735 µM.
Work on “(Z)—N-(3-ethynyl-4-fluorophenyl)-N′-hydroxy-4-((2-(methylsulfonoamidimidamido)ethyl)amino)-1,2,5-oxadiazole-3-carboximidamide [Example 19]” yielded an IC50 of 0.0133 µM.
